According to ChEMBL document CHEMBL1671626, “In vitro profiling of ceftaroline against a collection of recent bacterial clinical isolates from across the United States” (2008):
≈ marks a conversion by molar mass, not a printed value.

Assays:
Format in all cases: functional
[1] = test system: Staphylococcus aureus; test: Antibacterial activity against methicillin-susceptible Staphylococcus aureus by CLSI M7-A7 broth microdilution method
[2] = test system: Staphylococcus aureus; test: Antibacterial activity against methicillin-susceptible Staphylococcus aureus assessed as resistant isolates by CLSI M7-A7 broth microdilution method
[3] = test system: Staphylococcus aureus; test: Antibacterial activity against methicillin-resistant Staphylococcus aureus assessed as susceptible isolates by CLSI M7-A7 broth microdilution method
[4] = test system: Staphylococcus aureus; test: Antibacterial activity against methicillin-resistant Staphylococcus aureus assessed as resistant isolates by CLSI M7-A7 broth microdilution method
[5] = test system: Staphylococcus aureus; test: Antibacterial activity against coagulase-negative and oxacillin-susceptible Staphylococcus aureus assessed as susceptible isolates by CLSI M7-A7 broth microdilution method
[6] = test system: Staphylococcus aureus; test: Antibacterial activity against coagulase-negative and oxacillin-susceptible Staphylococcus aureus assessed as resistant isolates by CLSI M7-A7 broth microdilution method
[7] = test system: Staphylococcus aureus; test: Antibacterial activity against coagulase-negative and oxacillin-resistant Staphylococcus aureus by CLSI M7-A7 broth microdilution method
[8] = test system: Staphylococcus aureus; test: Antibacterial activity against coagulase-negative and oxacillin-resistant Staphylococcus aureus assessed as susceptible isolates by CLSI M7-A7 broth microdilution method
[9] = test system: Streptococcus pneumoniae; test: Antibacterial activity against penicillin-susceptible Streptococcus pneumoniae by CLSI M7-A7 broth microdilution method
[10] = test system: Streptococcus pneumoniae; test: Antibacterial activity against penicillin-susceptible Streptococcus pneumoniae assessed as susceptible isolates by CLSI M7-A7 broth microdilution method
[11] = test system: Streptococcus pneumoniae; test: Antibacterial activity against penicillin-resistant Streptococcus pneumoniae assessed as susceptible isolates by CLSI M7-A7 broth microdilution method
[12] = test system: Streptococcus pyogenes; test: Antibacterial activity against erythromycin-susceptible Streptococcus pyogenes by CLSI M7-A7 broth microdilution method
[13] = test system: Streptococcus agalactiae; test: Antibacterial activity against erythromycin-susceptible Streptococcus agalactiae by CLSI M7-A7 broth microdilution method
[14] = test system: Streptococcus agalactiae; test: Antibacterial activity against erythromycin-nonsusceptible Streptococcus agalactiae by CLSI M7-A7 broth microdilution method
[15] = test system: Streptococcus viridans; test: Antibacterial activity against penicillin-susceptible Streptococcus viridans by CLSI M7-A7 broth microdilution method
[16] = test system: Enterococcus faecalis; test: Antibacterial activity against vancomycin-susceptible Enterococcus faecalis by CLSI M7-A7 broth microdilution method
[17] = test system: Enterococcus faecium; test: Antibacterial activity against vancomycin-resistant Enterococcus faecium by CLSI M7-A7 broth microdilution method
[18] = test system: Citrobacter freundii; test: Antibacterial activity against ceftazidime-susceptible Citrobacter freundii assessed as susceptible isolates by CLSI M7-A7 broth microdilution method
[19] = test system: Citrobacter freundii; test: Antibacterial activity against ceftazidime-susceptible Citrobacter freundii assessed as resistant isolates by CLSI M7-A7 broth microdilution method
[20] = test system: Enterobacter cloacae; test: Antibacterial activity against ceftazidime-susceptible Enterobacter cloacae by CLSI M7-A7 broth microdilution method
[21] = test system: Enterobacter cloacae; test: Antibacterial activity against ceftazidime-nonsusceptible Enterobacter cloacae by CLSI M7-A7 broth microdilution method
[22] = test system: Enterobacter cloacae; test: Antibacterial activity against ceftazidime-nonsusceptible Enterobacter cloacae assessed as resistant isolates by CLSI M7-A7 broth microdilution method
[23] = test system: Escherichia coli; test: Antibacterial activity against ceftazidime-susceptible Escherichia coli by CLSI M7-A7 broth microdilution method
[24] = test system: Escherichia coli; test: Antibacterial activity against ceftazidime-susceptible Escherichia coli assessed as susceptible isolates by CLSI M7-A7 broth microdilution method
[25] = test system: Escherichia coli; test: Antibacterial activity against ceftazidime-susceptible Escherichia coli assessed as resistant isolates by CLSI M7-A7 broth microdilution method
[26] = test system: Escherichia coli; test: Antibacterial activity against ceftazidime-nonsusceptible Escherichia coli by CLSI M7-A7 broth microdilution method
[27] = test system: Klebsiella pneumoniae; test: Antibacterial activity against ceftazidime-susceptible Klebsiella pneumoniae by CLSI M7-A7 broth microdilution method
[28] = test system: Klebsiella pneumoniae; test: Antibacterial activity against ceftazidime-susceptible Klebsiella pneumoniae assessed as resistant isolates by CLSI M7-A7 broth microdilution method
[29] = test system: Klebsiella pneumoniae; test: Antibacterial activity against ceftazidime-nonsusceptible Klebsiella pneumoniae assessed as resistant isolates by CLSI M7-A7 broth microdilution method
[30] = test system: Morganella morganii; test: Antibacterial activity against ceftazidime-susceptible Morganella morganii assessed as susceptible isolates by CLSI M7-A7 broth microdilution method
[31] = test system: Morganella morganii; test: Antibacterial activity against ceftazidime-susceptible Morganella morganii assessed as resistant isolates by CLSI M7-A7 broth microdilution method
[32] = test system: Proteus mirabilis; test: Antibacterial activity against ceftazidime-susceptible Proteus mirabilis assessed as susceptible isolates by CLSI M7-A7 broth microdilution method
[33] = test system: Serratia marcescens; test: Antibacterial activity against ceftazidime-susceptible Serratia marcescens by CLSI M7-A7 broth microdilution method
[34] = test system: Serratia marcescens; test: Antibacterial activity against ceftazidime-susceptible Serratia marcescens assessed as susceptible isolates by CLSI M7-A7 broth microdilution method
[35] = test system: Serratia marcescens; test: Antibacterial activity against ceftazidime-susceptible Serratia marcescens assessed as resistant isolates by CLSI M7-A7 broth microdilution method
[36] = test system: Acinetobacter; test: Antibacterial activity against multidrug-resistant Acinetobacter by CLSI M7-A7 broth microdilution method
[37] = test system: Acinetobacter; test: Antibacterial activity against imipenem-susceptible Acinetobacter assessed as susceptible isolates by CLSI M7-A7 broth microdilution method
[38] = test system: Acinetobacter; test: Antibacterial activity against imipenem-susceptible Acinetobacter assessed as resistant isolates by CLSI M7-A7 broth microdilution method
[39] = test system: Haemophilus influenzae; test: Antibacterial activity against beta lactamase-negative Haemophilus influenzae assessed as susceptible isolates by CLSI M7-A7 broth microdilution method
[40] = test system: Moraxella catarrhalis; test: Antibacterial activity against beta lactamase-positive Moraxella catarrhalis by CLSI M7-A7 broth microdilution method
[41] = test system: Moraxella catarrhalis; test: Antibacterial activity against beta lactamase-positive Moraxella catarrhalis assessed as susceptible isolates by CLSI M7-A7 broth microdilution method
[42] = test system: Pasteurella multocida; test: Antibacterial activity against Pasteurella multocida by CLSI M7-A7 broth microdilution method
[43] = test system: Providencia sp.; test: Antibacterial activity against ceftazidime-susceptible Providencia sp. assessed as susceptible isolates by CLSI M7-A7 broth microdilution method
[44] = test system: Providencia sp.; test: Antibacterial activity against ceftazidime-susceptible Providencia sp. assessed as resistant isolates by CLSI M7-A7 broth microdilution method

SMILES: CO/N=C(\C(=O)N[C@@H]1C(=O)N2C(C(=O)O)=C(CSc3nc(=O)c(O)nn3C)CS[C@H]12)c1csc(N)n1 [CEFTRIAXONE]
- MIC50 [1]: 2 µg/mL (≈ 3.61 µM)
- MIC90 [1]: 4 µg/mL (≈ 7.21 µM)
- Activity [2]: 0.3%
- Activity [3]: 14.2%
- Activity [4]: 33.1%
- Activity [5]: 98%
- Activity [6]: 0%
- MIC50 [7]: 16 µg/mL (≈ 28.9 µM)
- MIC90 [7]: > 32 µg/mL
- Activity [8]: 27.1%
- MIC50 [9]: 0.03 µg/mL (≈ 0.0541 µM)
- MIC90 [9]: 0.06 µg/mL (≈ 0.108 µM)
- Activity [10]: 100%
- Activity [11]: 79.4%
- MIC [12]: ≤ 0.015 µg/mL
- MIC50 [12]: ≤ 0.015 µg/mL
- MIC90 [12]: 0.03 µg/mL (≈ 0.0541 µM)
- MIC50 [13]: 0.06 µg/mL (≈ 0.108 µM)
- MIC90 [13]: 0.12 µg/mL (≈ 0.216 µM)
- MIC50 [14]: 0.06 µg/mL (≈ 0.108 µM)
- MIC90 [14]: 0.12 µg/mL (≈ 0.216 µM)
- MIC50 [15]: 0.06 µg/mL (≈ 0.108 µM)
- MIC90 [15]: 0.25 µg/mL (≈ 0.451 µM)
- MIC50 [16]: > 32 µg/mL
- MIC90 [16]: > 32 µg/mL
- MIC [17]: > 32 µg/mL
- MIC50 [17]: > 32 µg/mL
- MIC90 [17]: > 32 µg/mL
- Activity [18]: 100%
- Activity [19]: 0%
- MIC50 [20]: 0.12 µg/mL (≈ 0.216 µM)
- MIC90 [20]: 1 µg/mL (≈ 1.8 µM)
- MIC50 [21]: > 16 µg/mL
- MIC90 [21]: > 16 µg/mL
- Activity [22]: 0%
- MIC50 [23]: ≤ 0.06 µg/mL
- MIC90 [23]: 0.12 µg/mL (≈ 0.216 µM)
- Activity [24]: 97.4%
- Activity [25]: 0%
- MIC50 [26]: > 16 µg/mL
- MIC90 [26]: > 16 µg/mL
- MIC [27]: ≤ 0.06 µg/mL
- MIC50 [27]: ≤ 0.06 µg/mL
- MIC90 [27]: 0.12 µg/mL (≈ 0.216 µM)
- Activity [28]: 0%
- Activity [29]: 0%
- Activity [30]: 100%
- Activity [31]: 0%
- Activity [32]: 96.6%
- MIC50 [33]: 0.25 µg/mL (≈ 0.451 µM)
- MIC90 [33]: 4 µg/mL (≈ 7.21 µM)
- Activity [34]: 93.2%
- Activity [35]: 0%
- MIC [36]: > 16 µg/mL
- MIC50 [36]: > 16 µg/mL
- Activity [37]: 44.7%
- Activity [38]: 0%
- Activity [39]: 100%
- MIC [40]: ≤ 0.25 µg/mL
- MIC50 [40]: ≤ 0.25 µg/mL
- MIC90 [40]: 1 µg/mL (≈ 1.8 µM)
- Activity [41]: 100%
- MIC [42]: ≤ 0.015 µg/mL
- MIC50 [42]: ≤ 0.015 µg/mL
- MIC90 [42]: ≤ 0.015 µg/mL
- Activity [43]: 100%
- Activity [44]: 0%

SMILES: C[C@H]1COc2c(N3CCN(C)CC3)c(F)cc3c(=O)c(C(=O)O)cn1c23.C[C@H]1COc2c(N3CCN(C)CC3)c(F)cc3c(=O)c(C(=O)O)cn1c23.O [LEVOFLOXACIN]
- MIC50 [1]: 0.12 µg/mL
- MIC90 [1]: 16 µg/mL
- Activity [2]: 15.2%
- Activity [3]: 25.6%
- Activity [4]: 73.2%
- Activity [5]: 81.6%
- Activity [6]: 17.9%
- MIC50 [7]: 8 µg/mL
- MIC90 [7]: > 16 µg/mL
- Activity [8]: 21.7%
- MIC50 [9]: 0.5 µg/mL
- MIC90 [9]: 1 µg/mL
- Activity [10]: 98.5%
- Activity [11]: 99.3%
- MIC50 [12]: 0.5 µg/mL
- MIC90 [12]: 1 µg/mL
- MIC50 [13]: 0.5 µg/mL
- MIC90 [13]: 1 µg/mL
- MIC50 [14]: 1 µg/mL
- MIC90 [14]: 1 µg/mL
- MIC50 [15]: 1 µg/mL
- MIC90 [15]: 1 µg/mL
- MIC50 [16]: 1 µg/mL
- MIC90 [16]: > 16 µg/mL
- MIC [17]: > 16 µg/mL
- MIC50 [17]: > 16 µg/mL
- MIC90 [17]: > 16 µg/mL
- Activity [18]: 98%
- Activity [19]: 0%
- MIC [20]: ≤ 0.03 µg/mL
- MIC50 [20]: ≤ 0.03 µg/mL
- MIC90 [20]: 0.5 µg/mL
- MIC50 [21]: 0.12 µg/mL
- MIC90 [21]: 1 µg/mL
- Activity [22]: 25.7%
- MIC50 [23]: ≤ 0.03 µg/mL
- MIC90 [23]: 16 µg/mL
- Activity [24]: 86.4%
- Activity [25]: 13.6%
- MIC50 [26]: > 16 µg/mL
- MIC90 [26]: > 16 µg/mL
- MIC50 [27]: 0.06 µg/mL
- MIC90 [27]: 0.25 µg/mL
- Activity [28]: 1.4%
- Activity [29]: 54.5%
- Activity [30]: 76.5%
- Activity [31]: 20.6%
- Activity [32]: 75.9%
- MIC50 [33]: 0.12 µg/mL
- MIC90 [33]: 1 µg/mL
- Activity [34]: 98.3%
- Activity [35]: 1.7%
- MIC50 [36]: 16 µg/mL
- Activity [37]: 51.1%
- Activity [38]: 36.2%
- Activity [39]: 100%
- MIC [40]: ≤ 0.03 µg/mL
- MIC50 [40]: ≤ 0.03 µg/mL
- MIC90 [40]: ≤ 0.03 µg/mL
- Activity [41]: 100%
- MIC50 [42]: ≤ 0.015 µg/mL
- MIC90 [42]: 0.03 µg/mL
- Activity [43]: 66.7%
- Activity [44]: 25.9%
